Results as given in ChEMBL document CHEMBL3112450, “Synthesis and in vitro antitumor evaluation of primary amine substituted quinazoline linked benzimidazole” (Bioorg Med Chem Lett, 2014).

Legend:
Assay type in all cases: functional
MCF7 = assay: Cytotoxicity against human MCF7 cells assessed as cell growth at 10^-5 M after 48 hrs by SRB assay; details: MCF7, 48 h, read-out: Activity
NCI-H23 = assay: Cytotoxicity against human NCI-H23 cells assessed as cell growth at 10^-5 M after 48 hrs by SRB assay; details: NCI-H23, 48 h, read-out: Activity
SNB-75 = assay: Cytotoxicity against human SNB75 cells assessed as cell growth at 10^-5 M after 48 hrs by SRB assay; details: SNB-75, 48 h, read-out: Activity
786-0 = assay: Cytotoxicity against human 786-0 cells assessed as cell growth at 10^-5 M after 48 hrs by SRB assay; details: 786-0, 48 h, read-out: Activity
SF-268 = assay: Cytotoxicity against human SF268 cells assessed as cell growth at 10^-5 M after 48 hrs by SRB assay; details: SF-268, 48 h, read-out: Activity
LOX IMVI = assay: Cytotoxicity against human LOXIMVI cells assessed as cell growth at 10^-5 M after 48 hrs by SRB assay; details: read-out: Activity
HOP-62 = assay: Cytotoxicity against human HOP62 cells assessed as cell growth at 10^-5 M after 48 hrs by SRB assay; details: HOP-62, 48 h, read-out: Activity
NCI-H322M = assay: Cytotoxicity against human NCI-H322M cells assessed as cell growth at 10^-5 M after 48 hrs by SRB assay; details: read-out: Activity
[1] = Cytotoxicity against human UACC257 cells assessed as cell growth at 10^-5 M after 48 hrs by SRB assay; details: UACC-257, 48 h, read-out: Activity
HL-60(TB) = assay: Cytotoxicity against human HL-60(TB) cells assessed as cell growth at 10^-5 M after 48 hrs by SRB assay; details: HL-60, 48 h, read-out: Activity
MDA-MB-435 = assay: Cytotoxicity against human MDA-MB-435 cells assessed as cell growth at 10^-5 M after 48 hrs by SRB assay; details: MDA-MB-435, 48 h, read-out: Activity
[2] = Cytotoxicity against human NCI-ADR-RES cells assessed as cell growth at 10^-5 M after 48 hrs by SRB assay; details: read-out: Activity
A549 = assay: Cytotoxicity against human A549 cells assessed as cell growth at 10^-5 M after 48 hrs by SRB assay; details: A549, 48 h, read-out: Activity
SN12C = assay: Cytotoxicity against human SN12C cells assessed as cell growth at 10^-5 M after 48 hrs by SRB assay; details: read-out: Activity
SW-620 = assay: Cytotoxicity against human SW620 cells assessed as cell growth at 10^-5 M after 48 hrs by SRB assay; details: SW-620, 48 h, read-out: Activity
[3] = Cytotoxicity against human Hs578T cells assessed as cell growth at 10^-5 M after 48 hrs by SRB assay; details: Hs-578T, read-out: Activity
Malme-3M = assay: Cytotoxicity against human MALME-3M cells assessed as cell growth at 10^-5 M after 48 hrs by SRB assay; details: read-out: Activity
A498 = assay: Cytotoxicity against human A498 cells assessed as cell growth at 10^-5 M after 48 hrs by SRB assay; details: A498, 48 h, read-out: Activity
SK-MEL-2 = assay: Cytotoxicity against human SK-MEL-2 cells assessed as cell growth at 10^-5 M after 48 hrs by SRB assay; details: SK-MEL-2, 48 h, read-out: Activity
RXF 393 = assay: Cytotoxicity against human RXF393 cells assessed as cell growth at 10^-5 M after 48 hrs by SRB assay; details: RXF 393, 48 h, read-out: Activity
HCC 2998 = assay: Cytotoxicity against human HCC2998 cells assessed as cell growth at 10^-5 M after 48 hrs by SRB assay; details: HCC 2998, 48 h, read-out: Activity
HT-29 = assay: Cytotoxicity against human HT-29 cells assessed as cell growth at 10^-5 M after 48 hrs by SRB assay; details: HT-29, 48 h, read-out: Activity
NCI-H522 = assay: Cytotoxicity against human NCI-H522 cells assessed as cell growth at 10^-5 M after 48 hrs by SRB assay; details: NCI-H522, 48 h, read-out: Activity
BT-549 = assay: Cytotoxicity against human BT549 cells assessed as cell growth at 10^-5 M after 48 hrs by SRB assay; details: BT-549, 48 h, read-out: Activity
SK-OV-3 = assay: Cytotoxicity against human SKOV3 cells assessed as cell growth at 10^-5 M after 48 hrs by SRB assay; details: SK-OV-3, 48 h, read-out: Activity
IGROV-1 = assay: Cytotoxicity against human IGROV1 cells assessed as cell growth at 10^-5 M after 48 hrs by SRB assay; details: IGROV-1, 48 h, read-out: Activity
OVCAR-8 = assay: Cytotoxicity against human OVCAR8 cells assessed as cell growth at 10^-5 M after 48 hrs by SRB assay; details: OVCAR-8, 48 h, read-out: Activity
[4] = Cytotoxicity against human OVCAR4 cells assessed as cell growth at 10^-5 M after 48 hrs by SRB assay; details: OVCAR-4, 48 h, read-out: Activity
KM12 = assay: Cytotoxicity against human KM12 cells assessed as cell growth at 10^-5 M after 48 hrs by SRB assay; details: KM12, 48 h, read-out: Activity
K562 = assay: Cytotoxicity against human K562 cells assessed as cell growth at 10^-5 M after 48 hrs by SRB assay; details: K562, 48 h, read-out: Activity
MOLT-4 = assay: Cytotoxicity against human MOLT4 cells assessed as cell growth at 10^-5 M after 48 hrs by SRB assay; details: MOLT-4, 48 h, read-out: Activity
HCT-15 = assay: Cytotoxicity against human HCT15 cells assessed as cell growth at 10^-5 M after 48 hrs by SRB assay; details: HCT-15, 48 h, read-out: Activity
M14 = assay: Cytotoxicity against human M14 cells assessed as cell growth at 10^-5 M after 48 hrs by SRB assay; details: M14, 48 h, read-out: Activity
SK-MEL-28 = assay: Cytotoxicity against human SK-MEL-28 cells assessed as cell growth at 10^-5 M after 48 hrs by SRB assay; details: SK-MEL-28, 48 h, read-out: Activity
OVCAR-3 = assay: Cytotoxicity against human OVCAR3 cells assessed as cell growth at 10^-5 M after 48 hrs by SRB assay; details: OVCAR-3, 48 h, read-out: Activity
SK-MEL-5 = assay: Cytotoxicity against human SK-MEL-5 cells assessed as cell growth at 10^-5 M after 48 hrs by SRB assay; details: SK-MEL-5, 48 h, read-out: Activity
[5] = Cytotoxicity against human OVCAR5 cells assessed as cell growth at 10^-5 M after 48 hrs by SRB assay; details: OVCAR-5, 48 h, read-out: Activity

SMILES	growth at 10 µM (MCF7)	growth at 10 µM (NCI-H23)	growth at 10 µM (SNB-75)	growth at 10 µM (786-0)	growth at 10 µM (SF-268)	growth at 10 µM (LOX IMVI)	growth at 10 µM (HOP-62)	growth at 10 µM (NCI-H322M)	growth at 10 µM [1]	growth at 10 µM (HL-60(TB))	growth at 10 µM (MDA-MB-435)	growth at 10 µM [2]	growth at 10 µM (A549)	growth at 10 µM (SN12C)	growth at 10 µM (SW-620)	growth at 10 µM [3]	growth at 10 µM (Malme-3M)	growth at 10 µM (A498)	growth at 10 µM (SK-MEL-2)	growth at 10 µM (RXF 393)	further results
C=CCn1c(C)nc2ccc(Nc3nc(Nc4ncccn4)nc4ccccc34)cc21	82.4%	82.8%	78.8%	106%	94.8%	85.3%	84.8%	100%	101%	94%	107%	103%	90.3%	97.6%	100%	87.7%	99%	76.8%	100%	114%	growth at 10 µM (HCC 2998): 106%; growth at 10 µM (HT-29): 104%; growth at 10 µM (NCI-H522): 98.1%; growth at 10 µM (BT-549): 82.8%; growth at 10 µM (SK-OV-3): 104%; growth at 10 µM (IGROV-1): 84.1%; growth at 10 µM (OVCAR-8): 94.3%; growth at 10 µM [4]: 85.6%; growth at 10 µM (KM12): 106%; growth at 10 µM (K562): 83%; growth at 10 µM (MOLT-4): 97.2%; growth at 10 µM (HCT-15): 111%; growth at 10 µM (M14): 115%; growth at 10 µM (SK-MEL-28): 111%; growth at 10 µM (OVCAR-3): 99.3%; growth at 10 µM (SK-MEL-5): 92.9%; growth at 10 µM [5]: 114%
C=CCn1c(C)nc2ccc(Nc3nc(Nc4ccc5nc(C)n(CC=C)c5c4)c4ccccc4n3)cc21	-100%	-89%	-95.2%	-93.8%	-77%	-91%	-100%	-88%	-91%	-71%	-84%	-25%	-90%	-100%	-91%	-52%	-78.9%	-91%	-88%	-93%	growth at 10 µM (HCC 2998): -100%; growth at 10 µM (HT-29): -96.7%; growth at 10 µM (NCI-H522): -94%; growth at 10 µM (BT-549): -86%; growth at 10 µM (SK-OV-3): -100%; growth at 10 µM (IGROV-1): -87%; growth at 10 µM (OVCAR-8): -76%; growth at 10 µM [4]: -100%; growth at 10 µM (KM12): -94%; growth at 10 µM (K562): -49%; growth at 10 µM (MOLT-4): -45.5%; growth at 10 µM (HCT-15): -74%; growth at 10 µM (M14): -95%; growth at 10 µM (SK-MEL-28): -96%; growth at 10 µM (OVCAR-3): -99%; growth at 10 µM (SK-MEL-5): -98%; growth at 10 µM [5]: -98%
C=CCn1c(C)nc2cc(Nc3nc(Nc4ccc5nc(C)n(CC=C)c5c4)c4ccccc4n3)ccc21	-89.3%	-69.2%	-96.7%	-80%	-99%	-94%	-99.5%	-100%	-79.8%	-70%	-92%	-46%	-67.1%	-76%	-76.2%	-48.1%	-76%	-100%	-84.1%	-97.4%	growth at 10 µM (HCC 2998): -98%; growth at 10 µM (HT-29): -71%; growth at 10 µM (NCI-H522): -94.8%; growth at 10 µM (BT-549): -96%; growth at 10 µM (SK-OV-3): -95.7%; growth at 10 µM (IGROV-1): -93.8%; growth at 10 µM (OVCAR-8): -40.9%; growth at 10 µM [4]: -100%; growth at 10 µM (KM12): -100%; growth at 10 µM (K562): -67%; growth at 10 µM (MOLT-4): -29%; growth at 10 µM (HCT-15): -78%; growth at 10 µM (M14): -88%; growth at 10 µM (SK-MEL-28): -88%; growth at 10 µM (OVCAR-3): -100%; growth at 10 µM (SK-MEL-5): -95.2%; growth at 10 µM [5]: -98%
C=CCn1c(C)nc2ccc(Nc3nc(Nc4ccc(F)cc4)nc4ccccc34)cc21	-63%	28%	-68%	43%	47%	24%	-70%	41%	66%	26%	24%	20%	26%	11%	1%	50%	63%	42%	4%	-92%	growth at 10 µM (HCC 2998): 47%; growth at 10 µM (HT-29): 5%; growth at 10 µM (NCI-H522): 8%; growth at 10 µM (BT-549): 21%; growth at 10 µM (SK-OV-3): -74%; growth at 10 µM (IGROV-1): 39%; growth at 10 µM (OVCAR-8): 4%; growth at 10 µM [4]: -26%; growth at 10 µM (KM12): 22%; growth at 10 µM (K562): 3%; growth at 10 µM (MOLT-4): -18%; growth at 10 µM (HCT-15): 1%; growth at 10 µM (M14): 8%; growth at 10 µM (SK-MEL-28): -91%; growth at 10 µM (OVCAR-3): 30%; growth at 10 µM (SK-MEL-5): -100%; growth at 10 µM [5]: 59%
C=CCn1c(C)nc2cc(Nc3nc(NCCO)nc4ccccc34)ccc21	72.2%	81.9%	76.4%	89.1%	90.9%	85.6%	83.3%	91.3%	97.7%	93.8%	92.1%	97.7%	92.3%	84.7%	68.2%	77.5%	98.6%	55.4%	102%	97.5%	growth at 10 µM (HCC 2998): 89%; growth at 10 µM (HT-29): 64.5%; growth at 10 µM (NCI-H522): 88.1%; growth at 10 µM (BT-549): 92.5%; growth at 10 µM (SK-OV-3): 103%; growth at 10 µM (IGROV-1): 95.3%; growth at 10 µM (OVCAR-8): 73.6%; growth at 10 µM [4]: 65.2%; growth at 10 µM (KM12): 73.1%; growth at 10 µM (K562): 64.1%; growth at 10 µM (MOLT-4): 56.7%; growth at 10 µM (HCT-15): 105%; growth at 10 µM (M14): 93.3%; growth at 10 µM (SK-MEL-28): 101%; growth at 10 µM (OVCAR-3): 94.8%; growth at 10 µM (SK-MEL-5): 75.4%; growth at 10 µM [5]: 92.2%
